Consider one compound from US20190192521A1, “Methods of Treating Arid1A-Mutated Cancers With HDAC6 Inhibitors and EZH2 Inhibitors” (The Wistar Institute of Anatomy and Biology, priority 2016, published 2019).

Experiment [1] has as its system ARID1A-mutated TOV21G cells. Nature of the experiment: ACY1215 sensitivity of TOV21G cells with or without wildtype ARID1A restoration. The format is cell-based, human. As to the method: (§1) Colony formation assays were performed as follows. Cell lines were infected with lentivirus pLKO.1-shRNAs or pLKO.1-control with puromycin selection marker. Infected cells were selected with 1 μg/mL of puromycin for 72 hours and the selected cells were seeded in 12-well or 24-well plates. Cell medium was changed every three days with appropriate drug doses for 14 days or until control wells became confluent. Colonies were washed twice with PBS and fixed with 10% methanol and 10% acetic acid in distilled water. Fixed colonies were stained with 0.005% crystal violet. Integrated density was measured using NIH ImageJ software.

In experiment [2] the test system is ARID1A-mutated TOV21G cells. Nature of the experiment: mitochondrial membrane potential (TMRE, FACS), TOV21G. In kind it is cell-based, human. As to the method:
Mean of five experimental replicates with S.E.M. p-value calculated via two-tailed t-test.
FIG. 96 illustrates ARID1A-mutated TOV21G cells with or without endogenous p53 knockdown by a shp53 that targets the 3′ UTR region of the human TP53 gene together with a lentivirus encoding a control, wildtype p53 or a p53K12OR mutant—the indicated cells were treated with or without ACY1215 and examined for mitochondrial membrane potential by FACS; n=3 independent experiments.
Annexin V and mitochondria membrane potentials were measured as follows. Phosphatidylserine externalization was detected using an Annexin V staining kit (Life Technologies) following the manufacturer's instructions. To measure change in mitochondria membrane potential cells were treated with 200 nM of tetramethylrhodamine, ethyl ester (TMRE; Abcam) for 15 min at 37° C. Annexin V and TMRE-positive cells were detected using the LSR18 and analyzed with the FlowJo software module.

The subject of experiment [3] is ARID1A-mutated OVISE cells. In words: growth inhibition with or without p53 knockdown, OVISE. In kind it is cell-based, human. As to the method: Growth inhibition was calculated based on integrated density as measured in NIH ImageJ, and values were normalized to vehicle control. Data is representative of 3 independent experiments. Error bars represent S.E.M. p-value calculated via two-tailed t-test.
as §1

In experiment [4] the test system is p53K120Ac in ARID1A wild-type RMG1 cells with or without ARID1A knockdown. Nature of the experiment: immunoblot of p53K120Ac, RMG1 with or without shARID1A. In kind it is cell-based, human. To be noted: 1.25 μM. As to the method:
Expression of the indicated proteins was examined by immunoblot. GAPDH expression was used as a loading control.
For immunoblotting, protein was isolated as described in Bitler et al. Nat. Med. 2015, 21, 231-238. Briefly, protein was extracted with RIPA buffer (150 mM NaCl, 1% NP40, 0.5% sodium deoxycholate, 0.1% SDS, 50 mM Tris pH 8.0, and 1 mM PMSF). Protein was separated on a SDS-PAGE and transferred to PVDF membrane. For immunoblot of p53 post-translation modifications, cells were treated with a proteasome inhibitor MG132 (10 μM) to stabilize p53 protein.
(A western blot detects proteins with antibodies after separation by electrophoresis.)

The subject of experiment [5] is p53K120Ac in ARID1A-mutated TOV21G cells. In words: mitochondrial localization of p53K120Ac (immunofluorescence, cellular fractionation). In kind it is cell-based, human. To be noted: 1.25 μM. The source says:
FIG. 42 illustrates that apoptosis induced by HDAC6 inhibition in ARD1A-mutated cells correlates with mitochondrial localization of p53K120Ac and a decrease in mitochondrial membrane potential. […] Images were captured using confocal microscopy.
Mean of three independent experiments with S.E.M.
Expression of p53K120Ac, mitochondrial marker TOM20, and total p53 in the indicated fractions was examined by immunoblot. GAPDH expression was used as a loading control.
Immunofluorescence and immunohistochemical staining was performed as follows. Immunofluorescence was performed after 48 hours as indicated by fixing samples in 4% paraformaldehyde and permeabilizing with 0.5% Triton-X. Samples were incubated with primary antibodies for 2 hours at room temperature, highly cross absorbed secondary antibodies (Invitrogen) for 1 hour at room temperature and mounted with prolong anti-fade reagent (Invitrogen). Immuno-stained cells were imaged using a Leica Confocal microscope. […] Bitler et al. Nat. Med. 2015, 21, 231-238; Bitler et al. Cancer Research 2011, 71, 6184-6194. Expression of the stained markers was scored using a histologic score (H score) as previously described. McCarty, Jr. et al. Cancer research 1986, 46, 4244s-4248s.
Mitochondria were isolated using the Mitochondria Isolation Kit (Thermo Fisher Scientific). […]

The subject of experiment [6] is ARID1A-mutated TOV21G cells. Nature of the experiment: apoptosis and growth inhibition with or without p53 knockdown, TOV21G. The format is cell-based, human. As to the method: Growth inhibition was calculated based on integrated density as measured in NIH ImageJ, and values were normalized to vehicle control. Data is representative of 3 independent experiments. Error bars represent S.E.M. The p-value was calculated via two-tailed t-test.
FIG. 91 illustrates dose responsive curves of the indicated cells treated with the HDAC6 inhibitor ACY1215; ARID1A wildtype RMG1 and OVCA429 cells were used as controls for comparison; n=4 independent experiments; error bars represent S.E.M. P-value calculated via two-tailed t-test.
FIG. 92 illustrates ARID1A-mutated TOV21G with or without p53 knockdown treated with ACY1215 (1.25 μM) or DMSO controls for 48 hours; percent apoptosis was quantified by FACS analysis based on Annexin V staining; n=3 independent experiments.
FIG. 97 illustrates ARID1A-mutated TOV21G cells with or without endogenous p53 knockdown by a shp53 that targets the 3′ UTR […] region of the human TP53 gene together with a lentivirus encoding a control, wildtype p53 or a p53K12OR mutant—the percentage of surviving cells of the indicated cells treated with ACY1215 was determined by colony formation assay; n=4 independent experiments.
Annexin V and mitochondria membrane potentials were measured as follows. Phosphatidylserine externalization was detected using an Annexin V staining kit (Life Technologies) following the manufacturer's instructions. […]

Experiment [7] has as its system cells with BRG1 knockdown. In words: ACY1215 sensitivity after knockdown of SWI/SNF subunit BRG1. In kind it is cell-based. As to the method: Retrovirus production and transduction were performed as described in Aird et al. Cell Reports 2013, 3, 1252-1265, and Bitler et al. Nat. Med. 2015, 21, 231-238. Phoenix cells were used to package the viruses. Lentivirus was packaged using the Virapower Kit from Life Technologies (Carlsbad, Calif.) following the manufacturer's instructions, and as described Aird et al. Cell Reports 2013, 3, 1252-1265, and Bitler et al. Nat. Med. 2015, 21, 231-238. pLKO.1-shARID1As (TRCN0000059090), pLKO.1-shp53 (TRCN0000010814 and TRCN0000003755), pLKO.1-shHDAC6 (TRCN0000004839 and TRCN0000004841), pLKO.1-shCaspase 3 (TRCN0000003550), shCaspase 9 (TRCN0000003583), shCaspase 8 (TRCN0000003577 and TRCN0000003579)and shBRG1 (TRCN0000015549 and TRCN0000015552) were obtained from Open Biosystems. A shRNA to luciferase was used as a control. […] Cells infected with viruses encoding the puromycin resistance gene were selected in 1 μg/ml puromycin.

As for `O=C(CCCCCCNC(=O)c1cnc(N(c2ccccc2)c2ccccc2)nc1)NO` [rocilinostat, 2-(diphenylamino)-N-(7-(hydroxyamino)-7-oxoheptyl)pyrimidine-5-carboxamide], the “effect of restoration of wildtype ARID1A on sensitivity” value in experiment [1] is listed as “reduced the sensitivity”. For the same compound, in experiment [2] (1.25 μM), the “mitochondrial membrane potential in ARID1A-mutated cells” value is on record as “significantly decreased”. Also, in experiment [2] (p53 knockdown, wildtype p53 or p53K120R rescue), the “dependence of mitochondrial membrane potential decrease” value was “both p53 and p53K120Ac dependent”. The “effect of p53 knockdown on apoptosis and growth inhibition induced by the compound” value is “significantly impaired the apoptosis and growth inhibition” in experiment [3]; “significantly impaired the apoptosis and growth inhibition” in experiment [6]. The “p53K120Ac in ARID1A knockdown cells compared with controls” value in experiment [4] is on record as “significant increase in p53K120Ac”. Besides, the “p53K120Ac in the mitochondrial fraction” value in experiment [5] (cellular fractionation) is “increase in p53K120Ac in the mitochondrial fraction”. The “co-localization of p53K120Ac and mitochondrial marker TOM20” value in experiment [5] (immunofluorescence) is “significant increase in co-localization”. For the same compound, the “rescue of p53 knockdown-mediated impairment of compound-induced growth inhibition” value in experiment [6] (wildtype p53 or p53K120R) is given as “wildtype p53 but not the p53K120R mutant rescued”. In experiment [7], the “effect of BRG1 knockdown on sensitivity” value was “did not increase”.
